Read-outs that look alike come from different tables or passages of the source. One block for each molecule: values may come before it.
Assays:
[1] = test system: breast cancer and non-cancer breast cell lines; assay: SRB antiproliferative comparison of breast cancer and non-cancer breast cell lines; assay type: cell-based, human; details: for antigrowth effect against cancer versus non-cancer cells (in words): three breast cancer lines vs 184B5 and MCF10A; for higher activity than the reference compounds cisplatin and CQ: breast cancer cell lines, GI50 comparison
Protocol: (§1) The human breast cancer cell lines MDA-MB468, MDA-MB231 and MCF-7 were purchased from ATCC and maintained in RPMI 1640 medium supplemented with 10% fetal bovine serum (Hyclone, Logan UT) and 2 mM L-glutamine. MCF10A and 184B5 immortalised breast cells were purchased from ATCC and maintained in mammary epithelial basal medium supplemented with an MEGM mammary epithelial singlequot kit (Cambrex). Cells were grown at 37 °C with 5% CO2, 95% air under the humidified conditions. Cell line authentication was carried out by Genetica DNA Laboratories (Burlington, NC) using a short tandem repeat profiling method (March 2015; July 2015; September 2016).
(§2) Cell cytotoxic effects were determined by a SRB-based protocol[2]^,[25].
(§3) The newly synthesised 4-piperazinylquinoline compounds (5–30) were evaluated for their antiproliferative effects using three breast cancer cell lines, for which the compounds were diluted to achieve seven different concentrations ranging from […]. Followed by 48 h incubation with the compound, cells were treated with sulforhodamine B (SRB) to measure their growth/viability (% of the untreated control) by spectrophotometer. The total cellular macromolecules levels known to accurately reflect by UV reading of SRB staining. […] The reference compounds CQ and cisplatin were included for the comparison.
(§4) We further assessed their antiproliferative effects on two non-cancer immortalised cell lines (184B5 and MCF10A). […] The antiproliferative effects of compound 23 on cancer cells are thus 7-fold (MDA-MB468 vs MCF10A) to 11-fold (MDA-MB231 vs 184B5) higher than matching non-cancer breast cells, which may indicate that compound 23 could potentially be safer than other compounds. Therefore, we examined it further to gain insights into its molecular mechanism of action.

[2] = test system: 184B5; assay: SRB antiproliferative assay, 184B5 non-cancer breast cells; assay type: cell-based, human; details: Homo sapiens; SRB, 48 h incubation, 184B5 non-cancer immortalised breast cells; read-out: GI50 184B5
Protocol: as §1, §2, §3, §4

[3] = test system: MDA-MB468; assay: SRB antiproliferative assay, MDA-MB468; assay type: cell-based, human; details: SRB, 48 h incubation, MDA-MB468 breast cancer cells, read-out: GI50 MDA-MB468
Protocol: as §1, §2, §3

[4] = test system: MCF10A; assay: SRB antiproliferative assay, MCF10A non-cancer breast cells; assay type: cell-based, human; details: Homo sapiens, MCF-10A; SRB, 48 h incubation, MCF10A non-cancer immortalised breast cells; read-out: GI50 MCF10A
Protocol: as §1, §2, §3, §4

[5] = test system: MCF7; assay: SRB antiproliferative assay, MCF7; assay type: cell-based, human; details: Homo sapiens; SRB, 48 h incubation, MCF7 breast cancer cells; read-out: GI50 MCF7
Protocol: as §1, §2, §3

[6] = test system: MDA-MB231; assay: SRB antiproliferative assay, MDA-MB231; assay type: cell-based, human; details: SRB, 48 h incubation, MDA-MB231 triple-negative breast cancer cells, read-out: GI50 MDA-MB231
Protocol: as §1, §2, §3

[7] = test system: MCF7 cells; assay: Mitochondrial (MitoTracker) and lysosomal (LysoTracker) staining of MCF7 cells; assay type: cell-based, human
Protocol: (§5) Lysosomal and AO staining were carried out as described previously. Mitochondrial staining with MitoTracker was carried out as described previously. Briefly, cells were plated on a poly-D-lysine pre-coated 1.8-cm sterile glass coverslip that had been placed in a well of a 6-well clustered dish. Cells were then incubated with 50 nM MitoTracker Red (ThermoFisher) for 30 min in a cell culture incubator. Plasma membrane staining was carried out with lipid-specific CellMask (Molecular probes, Life Technologies), according to the manufacturer’s instruction. For actin staining, cells fixed with 4% formaldehyde were incubated with phalloidin conjugated with Fitc (green) for 30 min. For nuclear staining, cells were incubated with 5 µM of DRAQ5 (blue) for 5 min.
It should be noted that these abnormalities could occur if the membranes of these organelles are compromised. Thus, the molecular target of compound 23 is likely a common element found in the membranes of cytoplasm, mitochondria and lysosomes, but not in the nuclear membrane as it is not compromised in the presence of compound 23 (Figures 4–6).
Figure 5. Mitochondrial membrane may be compromised in the presence of compound 23. […] (b) Mitochondria are aggregated and disorganized in the presence of compound 23. MCF7 mitochondria and nuclei were stained with MitoTracker and DRAQ5, respectively, as descried in Materials and methods.
Figure 6. […]

[8] = test system: MCF7 breast cancer cells; assay: Plasma membrane integrity staining (EtBr, AO, CellMask) of MCF7 cells; assay type: cell-based, human
Protocol: as §5
However, it is currently unclear how lipid molecules are found throughout the entire cytoplasm. […] In addition, cells treated with compound 23 are often enlarged and flattened, and contained multi-nuclei. In addition, many small vacuoles are found in the cytoplasm of these cells (Figure 4(a–c)). All of these phenomena are likely leading to eventual cancer cell demise in the presence of compound 23.
Figure 4. […] (a) MCF7 cell morphology changes in the presence of compound 23. MCF7 cells were sham treated or treated with compound 23 for 48 h, followed by staining with either EtBr. […]

Structure (SMILES): FC(F)(F)c1ccc(NC(=S)N2CCN(c3ccnc4cc(Cl)ccc34)CC2)cc1 [Compound 19, 4-(7-Chloro-quinolin-4-yl)-piperazine-1-carbothioic acid (4-trifluoromethyl-phenyl)-amide]
antigrowth effect against cancer versus non-cancer cells (in words) [1]: higher activity against non-cancer cells than cancer cells
GI50 [2]: 3.7 ± 0.1 µM
GI50 ([3]; Homo sapiens, MDA-MB-468, 48 h): 7.8 ± 0.8 µM
GI50 [4]: 3.1 ± 0.1 µM
melting point: 112 to 113 °C
GI50 [5]: 4.9 ± 0.4 µM
GI50 ([6]; Homo sapiens, MDA-MB-231, 48 h): 14.9 ± 1.1 µM

Structure (SMILES): S=C(Nc1cccc2ccccc12)N1CCN(c2ccnc3cc(Cl)ccc23)CC1 [Compound 22, 4-(7-Chloro-quinolin-4-yl)-piperazine-1-carbothioic acid naphthalen-1-ylamide]
antigrowth effect against cancer versus non-cancer cells (in words) [1]: comparable against cancer and non-cancer cells
GI50 [2]: 17.8 ± 0.6 µM
GI50 ([3]; Homo sapiens, MDA-MB-468, 48 h): 10 ± 0.9 µM
GI50 [4]: 13.3 ± 1 µM
melting point: 107 to 108 °C
GI50 [5]: 30.1 ± 1.2 µM
GI50 ([6]; Homo sapiens, MDA-MB-231, 48 h): 19.8 ± 1.1 µM

Structure (SMILES): FC(F)(F)c1ccc2c(N3CCN(C(=S)Nc4ccccc4)CC3)ccnc2c1 [Compound 24, 4-(7-Trifluoromethyl-quinolin-4-yl)-piperazine-1-carbothioic acid phenylamide]
antigrowth effect against cancer versus non-cancer cells (in words) [1]: much stronger activities against cancer than non-cancer cells
GI50 [2]: 24.4 ± 2 µM
GI50 ([3]; Homo sapiens, MDA-MB-468, 48 h): 14.1 ± 0.9 µM
GI50 [4]: 34.2 ± 1.3 µM
melting point: 187 to 188 °C
GI50 [5]: 7.5 ± 0.6 µM
GI50 ([6]; Homo sapiens, MDA-MB-231, 48 h): 13.8 ± 0.8 µM

Structure (SMILES): Cc1cccc(C)c1NC(=S)N1CCN(c2ccnc3cc(C(F)(F)F)ccc23)CC1 [Compound 25, 4-(7-Trifluoromethyl-quinolin-4-yl)-piperazine-1-carbothioic acid (2,6-dimethyl-phenyl)-amide]
antigrowth effect against cancer versus non-cancer cells (in words) [1]: comparable against cancer and non-cancer cells
GI50 [2]: 21.4 ± 1.3 µM
GI50 ([3]; Homo sapiens, MDA-MB-468, 48 h): 13.3 ± 0.3 µM
GI50 [4]: 14.1 ± 1.5 µM
melting point: 105 to 106 °C
GI50 [5]: 5.2 ± 0.5 µM
GI50 ([6]; Homo sapiens, MDA-MB-231, 48 h): 22.2 ± 1.7 µM

Structure (SMILES): FC(F)(F)c1ccc2c(N3CCN(C(=S)Nc4ccc(Cl)cc4)CC3)ccnc2c1 [Compound 27, 4-(7-Trifluoromethyl-quinolin-4-yl)-piperazine-1-carbothioic acid (4-chloro-phenyl)-amide]
antigrowth effect against cancer versus non-cancer cells (in words) [1]: comparable against cancer and non-cancer cells
GI50 [2]: 7.9 ± 0.6 µM
GI50 ([3]; Homo sapiens, MDA-MB-468, 48 h): 11.8 ± 1.6 µM
GI50 [4]: 9.2 ± 1 µM
melting point: 165 to 166 °C
GI50 [5]: 7 ± 0.7 µM
GI50 ([6]; Homo sapiens, MDA-MB-231, 48 h): 18.7 ± 2.3 µM

Structure (SMILES): FC(F)(F)c1ccc2c(N3CCN(C(=S)Nc4c(Cl)cc(Cl)cc4Cl)CC3)ccnc2c1 [Compound 28, 4-(7-Trifluoromethyl-quinolin-4-yl)-piperazine-1-carbothioic acid (2,4,6-trichloro-phenyl)-amide]
antigrowth effect against cancer versus non-cancer cells (in words) [1]: higher activity against non-cancer cells than cancer cells
GI50 [2]: 5.5 ± 0.5 µM
GI50 ([3]; Homo sapiens, MDA-MB-468, 48 h): 23.4 ± 1.9 µM
GI50 [4]: 8.2 ± 0.7 µM
melting point: 112 to 114 °C
GI50 [5]: 11.8 ± 1 µM
GI50 ([6]; Homo sapiens, MDA-MB-231, 48 h): 12.2 ± 0.9 µM

Structure (SMILES): FC(F)(F)c1ccc2c(N3CCN(C(=S)Nc4cccc5ccccc45)CC3)ccnc2c1 [Compound 29, 4-(7-Trifluoromethyl-quinolin-4-yl)-piperazine-1-carbothioic acid naphthalen-1-ylamide]
higher activity than the reference compounds cisplatin and CQ [1]: 4-8 fold
antigrowth effect against cancer versus non-cancer cells (in words) [1]: much stronger activities against cancer than non-cancer cells
GI50 [2]: 50.6 ± 3.8 µM
GI50 ([3]; Homo sapiens, MDA-MB-468, 48 h): 9.4 ± 0.8 µM
GI50 [4]: 69.4 ± 3.7 µM
melting point: 137 to 138 °C
GI50 [5]: 6.4 ± 0.7 µM
GI50 ([6]; Homo sapiens, MDA-MB-231, 48 h): 9.8 ± 1 µM

Structure (SMILES): FC(F)(F)c1ccc2c(N3CCN(C(=S)NCCN4CCOCC4)CC3)ccnc2c1 [Compound 30, 4-(7-Trifluoromethyl-quinolin-4-yl)-piperazine-1-carbothioic acid (2-morpholin-4-yl-ethyl)-amide]
antigrowth effect against cancer versus non-cancer cells (in words) [1]: much stronger activities against cancer than non-cancer cells
GI50 [2]: 17.4 ± 1 µM
GI50 ([3]; Homo sapiens, MDA-MB-468, 48 h): 14.2 ± 0.6 µM
GI50 [4]: 18.9 ± 1.3 µM
melting point: 134 to 135 °C
GI50 [5]: 6.2 ± 0.7 µM
GI50 ([6]; Homo sapiens, MDA-MB-231, 48 h): 11.8 ± 0.9 µM

The remaining molecules from weak to strong by GI50 ([3]; Homo sapiens, MDA-MB-468, 48 h), led by results:

GI50 ([3]; Homo sapiens, MDA-MB-468, 48 h): 33.1 ± 1.5 µM
melting point: 145 to 146 °C
GI50 [5]: 20.4 ± 0.9 µM
GI50 ([6]; Homo sapiens, MDA-MB-231, 48 h): 22.6 ± 1.4 µM
Structure (SMILES): S=C(Nc1ccc(Cl)cc1)N1CCN(c2ccnc3cc(Cl)ccc23)CC1 [Compound 20, 4-(7-Chloro-quinolin-4-yl)-piperazine-1-carbothioic acid (4-chloro-phenyl)-amide]
antigrowth effect against cancer versus non-cancer cells (in words) [1]: higher activity against non-cancer cells than cancer cells
GI50 [2]: 14.4 ± 0.6 µM
GI50 [4]: 8.8 ± 0.7 µM

GI50 ([3]; Homo sapiens, MDA-MB-468, 48 h): 23.4 ± 0.9 µM
melting point: 123 to 124 °C
GI50 [5]: 3.8 ± 0.3 µM
GI50 ([6]; Homo sapiens, MDA-MB-231, 48 h): 16.5 ± 1.2 µM
Structure (SMILES): FC(F)(F)c1ccc(NC(=S)N2CCN(c3ccnc4cc(C(F)(F)F)ccc34)CC2)cc1 [Compound 26, 4-(7-Trifluoromethyl-quinolin-4-yl)-piperazine-1-carbothioic acid (4-trifluoromethyl-phenyl)-amide]
antigrowth effect against cancer versus non-cancer cells (in words) [1]: comparable against cancer and non-cancer cells
GI50 [2]: 8.8 ± 0.6 µM
GI50 [4]: 10.7 ± 2 µM

GI50 ([3]; Homo sapiens, MDA-MB-468, 48 h): 5.1 ± 0.2 µM
melting point: 132 to 133 °C
GI50 [5]: 4 ± 0.3 µM
GI50 ([6]; Homo sapiens, MDA-MB-231, 48 h): 7.7 ± 0.5 µM
Structure (SMILES): S=C(Nc1c(Cl)cc(Cl)cc1Cl)N1CCN(c2ccnc3cc(Cl)ccc23)CC1 [Compound 21, 4-(7-Chloro-quinolin-4-yl)-piperazine-1-carbothioic acid (2,4,6-trichloro-phenyl)-amide]
antigrowth effect against cancer versus non-cancer cells (in words) [1]: comparable against cancer and non-cancer cells
GI50 [2]: 4.7 ± 0.3 µM
GI50 [4]: 6.8 ± 0.6 µM

GI50 ([3]; Homo sapiens, MDA-MB-468, 48 h): 4.7 µM
GI50 [3]: 4.6 ± 0.6 µM
melting point: 114 to 115 °C
GI50 [5]: 4.5 ± 0.1 µM
GI50 ([6]; Homo sapiens, MDA-MB-231, 48 h): 5.3 µM
GI50 [6]: 3 ± 0.1 µM
Structure (SMILES): S=C(NCCN1CCOCC1)N1CCN(c2ccnc3cc(Cl)ccc23)CC1 [Compound 23, 4-(7-Chloro-quinolin-4-yl)-piperazine-1-carbothioic acid (2-morpholin-4-yl-ethyl)-amide]
antiproliferative effect on cancer cells higher than matching non-cancer breast cells ([1]; MDA-MB231 vs 184B5): 11 fold
antiproliferative effect on cancer cells higher than matching non-cancer breast cells ([1]; MDA-MB468 vs MCF10A): 7 fold
higher activity than the reference compounds cisplatin and CQ [1]: 4-8 fold
antigrowth/cell-killing activity higher on cancer than non-cancer cells ([1]; overall range, cancer vs non-cancer breast cells): 7-11 fold
antigrowth effect against cancer versus non-cancer cells (in words) [1]: much stronger activities against cancer than non-cancer cells
mitochondrial and lysosomal volumes (in words) [7]: substantial increases in mitochondrial and lysosomal volumes
GI50 [2]: 34.4 ± 0.6 µM
GI50 [4]: 32.3 ± 0.8 µM
cells showing compromised plasma membrane phenotypes ([8]; MCF7, of 500 cells examined, 24-h post treatment): 42.4 ± 4.8%
ethidium bromide uptake / plasma membrane integrity (in words) ([8]; MCF7 cells, treated 48 h, vs Sham control): readily uptake ethidium bromide

Reference: PMC6366420, “Design and synthesis of 4-piperazinyl quinoline derived urea/thioureas for anti-breast cancer activity by a hybrid pharmacophore approach” (Journal of Enzyme Inhibition and Medicinal Chemistry, 2019)
